Patent US12448369B2 (Edgewise Therapeutics, Inc., priority 2023, dated 2025)

Columns and labels:
[1] = system: Rabbit Psoas myofibrils (skeletal myosin ATPase); assay: Myofibril ATPase assay, rabbit psoas (skeletal) myofibrils; type: biochemical; details: Y75 value (no ‡ mark); rabbit psoas myofibrils
Outline: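 Myofibrils homogenized in Triton X-100 buffer were assayed in pH 7.0 PIPES with defined Ca2+/EGTA. Myosin-driven ADP formation was coupled to NADH oxidation, with depletion monitored at 340 nm. Each value is the concentration that lowers activity to 75% of vehicle or, for activators, raises it to 125%.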

[2] = system: Porcine atria myofibrils (atrial myosin ATPase); assay: Myofibril ATPase assay, porcine atria myofibrils; type: biochemical; details: Y75 value (no ‡ mark); porcine atria myofibrils
Outline: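 Values are Y75 (concentration cutting ATPase activity to 75% of vehicle) or Y125 (raising it to 125%), taken from 4-parameter logistic fits. Rates come from NADH disappearance at 340 nm in a PK/LDH-coupled assay with porcine atria myofibrils.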

[3] = molecular target: T1, Porcine ventricle myofibrils (ventricular myosin ATPase) (Sus scrofa, UniProt P79293); assay: Myofibril ATPase assay, porcine ventricle myofibrils; type: biochemical, porcine (Yucatan minipigs); details: Y75 value (no ‡ mark); porcine ventricle myofibrils
T1 construct: Myofibrils from porcine cardiac muscle was isolated from the left ventricle of Yucatan minipigs; tissue Exemplar Genetics; host or cells: left ventricle of Yucatan minipigs, myofibrils prepared in house
T1 sequence (P79293 whole entry): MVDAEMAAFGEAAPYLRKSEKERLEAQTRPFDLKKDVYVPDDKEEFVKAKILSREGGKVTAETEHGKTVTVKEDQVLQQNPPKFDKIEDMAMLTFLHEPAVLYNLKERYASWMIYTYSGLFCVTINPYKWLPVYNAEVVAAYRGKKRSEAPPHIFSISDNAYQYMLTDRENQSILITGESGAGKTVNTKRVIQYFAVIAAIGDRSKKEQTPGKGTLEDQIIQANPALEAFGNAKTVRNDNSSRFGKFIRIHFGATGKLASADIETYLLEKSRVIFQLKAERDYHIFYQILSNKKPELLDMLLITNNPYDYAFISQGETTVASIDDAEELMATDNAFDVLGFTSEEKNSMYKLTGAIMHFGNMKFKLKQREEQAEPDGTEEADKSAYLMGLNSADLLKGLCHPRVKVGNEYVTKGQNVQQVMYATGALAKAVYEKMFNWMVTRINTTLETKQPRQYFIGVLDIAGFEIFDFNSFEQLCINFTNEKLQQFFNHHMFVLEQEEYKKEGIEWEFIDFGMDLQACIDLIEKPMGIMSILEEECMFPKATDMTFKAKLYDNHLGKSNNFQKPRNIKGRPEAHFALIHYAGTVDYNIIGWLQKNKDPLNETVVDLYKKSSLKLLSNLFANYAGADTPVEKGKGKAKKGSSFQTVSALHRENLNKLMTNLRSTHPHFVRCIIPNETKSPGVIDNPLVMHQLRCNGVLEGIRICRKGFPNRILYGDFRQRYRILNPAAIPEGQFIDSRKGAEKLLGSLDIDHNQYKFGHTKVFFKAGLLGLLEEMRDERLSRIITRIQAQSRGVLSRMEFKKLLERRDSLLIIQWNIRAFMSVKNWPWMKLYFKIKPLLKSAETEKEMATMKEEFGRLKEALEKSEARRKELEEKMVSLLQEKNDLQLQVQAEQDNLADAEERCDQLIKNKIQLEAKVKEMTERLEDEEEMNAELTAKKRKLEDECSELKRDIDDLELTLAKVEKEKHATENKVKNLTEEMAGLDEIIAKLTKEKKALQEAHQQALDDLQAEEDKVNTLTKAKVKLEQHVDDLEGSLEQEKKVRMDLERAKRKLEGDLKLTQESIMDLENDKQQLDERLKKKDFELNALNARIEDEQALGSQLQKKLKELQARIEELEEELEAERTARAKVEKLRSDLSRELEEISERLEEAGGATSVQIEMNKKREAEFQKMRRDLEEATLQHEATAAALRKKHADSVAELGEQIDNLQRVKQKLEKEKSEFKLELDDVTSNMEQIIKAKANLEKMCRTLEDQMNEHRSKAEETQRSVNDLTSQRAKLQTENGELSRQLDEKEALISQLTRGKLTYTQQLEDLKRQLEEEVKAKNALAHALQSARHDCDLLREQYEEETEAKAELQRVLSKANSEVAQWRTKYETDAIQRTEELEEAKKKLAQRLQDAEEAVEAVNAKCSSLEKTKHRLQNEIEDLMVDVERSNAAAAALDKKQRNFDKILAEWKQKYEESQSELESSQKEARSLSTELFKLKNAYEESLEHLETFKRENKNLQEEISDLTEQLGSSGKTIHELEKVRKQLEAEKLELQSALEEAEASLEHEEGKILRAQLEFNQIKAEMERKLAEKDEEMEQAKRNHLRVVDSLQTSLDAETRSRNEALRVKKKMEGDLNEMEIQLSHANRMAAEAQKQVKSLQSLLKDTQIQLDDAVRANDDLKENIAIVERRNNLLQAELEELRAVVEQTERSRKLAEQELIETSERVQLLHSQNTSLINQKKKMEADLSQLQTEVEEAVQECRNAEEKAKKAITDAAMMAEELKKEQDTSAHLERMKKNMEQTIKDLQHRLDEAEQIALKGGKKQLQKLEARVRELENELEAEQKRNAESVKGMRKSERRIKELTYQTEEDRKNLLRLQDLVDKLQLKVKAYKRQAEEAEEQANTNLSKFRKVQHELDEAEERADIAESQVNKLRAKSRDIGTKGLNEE
Outline: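 Test compounds acted on myofibrils isolated from the left ventricle of Yucatan minipigs. ADP formation was coupled via pyruvate kinase/lactate dehydrogenase to NADH oxidation, monitored kinetically at 340 nm over 75 min. Rates relative to vehicle were fitted with a 4-parameter logistic model, reported as Y75 (25% inhibition) or Y125 (activation) concentrations.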

SMILES | Skeletal EC25 [1] [nM] | Atrial EC25 [2] [nM] | Ventricular EC25 [3] [nM]
Cc1c(C(F)(F)C(=O)N[C@@H](C)c2ncc(C#N)cc2F)c(=O)[nH]c2ccc(F)c(C#N)c12 (single isomer, unassigned) [compound 4836] | 20 | 170 | 150
Cc1nc([C@@H](C)NC(=O)Cc2c(C)c3c(C)c(F)ccc3[nH]c2=O)ncc1C#N (single isomer, unassigned) [compound 4837] | 210 | 1900 | 3670
Cc1c(C(F)(F)C(=O)N[C@H](C)c2ncc(C#N)cn2)c(=O)[nH]c2cccc(C#N)c12 (single isomer, unassigned) [compound 4838] | 280 | 920 | 3580
Cc1c(C(F)(F)C(=O)N[C@@H](C)c2ncc(C#N)cn2)c(=O)[nH]c2cccc(C#N)c12 (single isomer, unassigned) [compound 4839] | 130 | 1670 | 1850
Cc1nc([C@H](C)NC(=O)Cc2c(C)c3c(C)c(F)ccc3[nH]c2=O)ncc1C#N (single isomer, unassigned) [compound 4840] | 290 | 1440 | 1620
Cc1c(C2(C(=O)N[C@H](C)c3nccc(C#N)n3)CC2)c(=O)[nH]c2ccc(F)cc12 (single isomer, unassigned) [compound 4841] | 100000 | 97500 | 100000
Cc1c(C2(C(=O)N[C@@H](C)c3nccc(C#N)n3)CC2)c(=O)[nH]c2ccc(F)cc12 (single isomer, unassigned) [compound 4842] | 37460 | 100000 | 100000
COc1ccc2[nH]c(=O)c(CC(=O)N[C@@H](C)c3ccc(F)cc3F)cc2c1C#N [Compound 81, (S)-2-(5-Cyano-6-methoxy-2-oxo-1,2-dihydroquinolin-3-yl)-N-(1-(2,4-difluorophenyl)ethyl) acetamide] | 51890 | 100000 | 100000
Cc1c(CC(=O)N[C@H](C)c2ncc(F)cc2F)c(=O)[nH]c2ccc(F)c(C(F)(F)F)c12 [compound 9] | 650 | 3290 | 920
Cc1c(CC(=O)N[C@@H](C)c2ncc(F)cc2F)c(=O)[nH]c2ccc(F)c(C(F)(F)F)c12 [compound 10] | 50 | 160 | 390
C[C@@H](NC(=O)Cc1cc2c(F)c(F)ccc2[nH]c1=O)c1ccc(C#N)cn1 [compound 17] | 430 | 90 | 1560
C[C@H](NC(=O)Cc1cc2c(F)c(F)ccc2[nH]c1=O)c1ccc(C#N)cn1 [compound 18] | 80 | 90 | 260
Cc1c(F)ccc2[nH]c(=O)c(CC(=O)N[C@H](C)c3ccc(C#N)cc3F)c(O)c12 [compound 19] | 2920 | 100000 | 1010
Cc1c(F)ccc2[nH]c(=O)c(CC(=O)N[C@@H](C)c3ccc(C#N)cc3F)c(O)c12 [compound 20] | 510 | 210 | 310
Cc1c(CC(=O)N[C@H](C)c2ncc(C#N)cc2F)c(=O)[nH]c2ccc(F)c(C(F)(F)F)c12 [compound 21] | 40 | 30 | 130
Cc1c(CC(=O)N[C@@H](C)c2ncc(C#N)cc2F)c(=O)[nH]c2ccc(F)c(C(F)(F)F)c12 [compound 22] | 0 | 20 | 20
Cc1c(CC(=O)N[C@@H](C)c2ncc(C#N)cc2F)c(=O)[nH]c2ccc(F)c(C3CC3)c12 [compound 28] | 20 | 40 | 60
Cc1c(CC(=O)N[C@H](C)c2ncc(C#N)cc2F)c(=O)[nH]c2ccc(F)c(C#N)c12 [compound 31] | 60 | 100 | 160
Cc1c(CC(=O)N[C@@H](C)c2ncc(C#N)cc2F)c(=O)[nH]c2ccc(F)c(C#N)c12 [compound 32] | 10 | 50 | 40
C[C@@H](NC(=O)Cc1cc2c(F)c(F)ccc2[nH]c1=O)c1ncc(F)cc1F [compound 33] | 290 | 170 | 460
C[C@H](NC(=O)Cc1cc2c(F)c(F)ccc2[nH]c1=O)c1ncc(F)cc1F [compound 34] | 20 | 20 | 50
Cc1c(CC(=O)N[C@H](C)c2ccc(C#N)cc2F)c(=O)[nH]c2ccc(F)c(C(F)(F)F)c12 [compound 37] | 20 | 40 | 50
Cc1c(CC(=O)N[C@@H](C)c2ccc(C#N)cc2F)c(=O)[nH]c2ccc(F)c(C(F)(F)F)c12 [compound 38] | 20 | 30 | 60
C[C@@H](NC(=O)Cc1c(C2CC2)c2cc(F)ccc2[nH]c1=O)c1ncc(C#N)cc1F [compound 39] | 100000 | 100000 | 100000
C[C@H](NC(=O)Cc1c(C2CC2)c2cc(F)ccc2[nH]c1=O)c1ncc(C#N)cc1F [compound 40] | 20 | 470 | 410

Continued, values first:

Skeletal EC25 [1] [nM] | Atrial EC25 [2] [nM] | Ventricular EC25 [3] [nM] | SMILES
30 | 60 | 70 | Cc1c(CC(=O)NC(C)c2cnc(C#N)cn2)c(=O)[nH]c2ccc(F)c(F)c12 (stereo in doubt) [compound 1145, (S)—N-(1-(5-cyanopyrazin-2-yl)ethyl)-2-(5,6-difluoro-4-methyl-2-oxo-1,2-dihydroquinolin-3-yl)acetamide]
500 | 100000 | 1190 | Cc1c(CC(=O)N[C@H](C)c2ccc(C#N)cn2)c(=O)[nH]c2ccc(F)c(C3CC3)c12 [compound 23]
40 | 50 | 210 | Cc1c(CC(=O)N[C@@H](C)c2ccc(C#N)cn2)c(=O)[nH]c2ccc(F)c(C3CC3)c12 [compound 24]
1680 | 100000 | 100000 | C[C@@H](NC(=O)Cc1c(C2CC2)c2c(F)c(F)ccc2[nH]c1=O)c1ccc(C#N)cn1 [compound 25]
210 | 6130 | 1400 | C[C@H](NC(=O)Cc1c(C2CC2)c2c(F)c(F)ccc2[nH]c1=O)c1ccc(C#N)cn1 [compound 26]
14830 | 100000 | 100000 | Cc1c(CC(=O)N[C@H](C)c2ccc(F)cn2)c(=O)[nH]c2cccc(F)c12 [compound 43]
50 | 210 | 1970 | Cc1c(CC(=O)N[C@@H](C)c2ccc(F)cn2)c(=O)[nH]c2cccc(F)c12 [compound 44]
120 | 70 | 420 | Cc1c(CC(=O)N[C@H](C)c2ccc(C#N)cn2)c(=O)[nH]c2ccc(F)c(F)c12 [compound 45]
20 | 240 | 120 | Cc1c(CC(=O)N[C@@H](C)c2ccc(C#N)cn2)c(=O)[nH]c2ccc(F)c(F)c12 [compound 46]
430 | 4480 | 4800 | C[C@@H](NC(=O)Cc1cc2c(F)cccc2[nH]c1=O)c1ccc(C#N)cn1 [compound 47]
230 | 1550 | 4140 | C[C@H](NC(=O)Cc1cc2c(F)cccc2[nH]c1=O)c1ccc(C#N)cn1 [compound 48]
60 | 180 | 680 | Cc1c(CC(=O)N[C@H](C)c2ccc(C#N)cn2)c(=O)[nH]c2ccc(F)c(C#N)c12 [compound 49]
20 | 50 | 230 | Cc1c(CC(=O)N[C@@H](C)c2ccc(C#N)cn2)c(=O)[nH]c2ccc(F)c(C#N)c12 [compound 50]
60 | 230 | 400 | Cc1c(CC(=O)N[C@H](C)c2ncc(C#N)cc2F)c(=O)[nH]c2cccc(F)c12 [compound 51]
20 | 60 | 100 | Cc1c(CC(=O)N[C@@H](C)c2ncc(C#N)cc2F)c(=O)[nH]c2cccc(F)c12 [compound 52]
